Laboratory results taken from patent US6677347B2, “Sulfonamido ether substituted imidazoquinolines” (3M Innovative Properties Company, priority 2000, dated 2004).

Experiments:
interferon (α) = assay: Cytokine Induction in Human Cells: interferon (α) by ELISA; format: cell-based; set-up: key to Lowest Effective Concentration (μM) Interferon: *: no induction was seen at any of the tested concentrations; generally the highest concentration tested was 10 or 30 μM; conditions: human PBMC, 18 to 24 hours incubation, lowest concentration found to induce interferon
From the text: (§1) An in vitro human blood cell system is used to assess cytokine induction. Activity is based on the measurement of interferon and tumor necrosis factor (α) (IFN and TNF, respectively) secreted into culture media as described by Testerman et. al. In “Cytokine Induction by the Immunomodulators Imiquimod and S-27609”, Journal of Leukocyte Biology, 58, 365-372 (September, 1995).
(§2) Whole blood from healthy human donors is collected by venipuncture into EDTA vacutainer tubes. Peripheral blood mononuclear cells (PBMC) are separated from whole blood by density gradient centrifugation using Histopaque®-1077. Blood is diluted 1:1 with Dulbecco's Phosphate Buffered Saline (DPBS) or Hank's Balanced Salts Solution (HBSS). The PBMC layer is collected and washed twice with DPBS or HBSS and resuspended at 4×10^6 cells/mL in RPMI complete. The PBMC suspension is added to 48 well flat bottom sterile tissue culture plates (Costar, Cambridge, Mass. or Becton Dickinson Labware, Lincoln Park, N.J.) containing an equal volume of RPMI complete media containing test compound.
(§3) The compounds are solubilized in dimethyl sulfoxide (DMSO). The DMSO concentration should not exceed a final concentration of 1% for addition to the culture wells. The compounds are generally tested at concentrations ranging from 30-0.014 μM.
(§4) The solution of test compound is added at 60 μM to the first well containing RPMI complete and serial 3 fold dilutions are made in the wells. The PBMC suspension is then added to the wells in an equal volume, bringing the test compound concentrations to the desired range (30-0.014 μM). The final concentration of PBMC suspension is 2×10^6 cells/mL. The plates are covered with sterile plastic lids, mixed gently and then incubated for 18 to 24 hours at 37° C. in a 5% carbon dioxide atmosphere.
(§5) Following incubation the plates are centrifuged for 10 minutes at 1000 rpm (˜200×g) at 4° C. The cell-free culture supernatant is removed with a sterile polypropylene pipet and transferred to sterile polypropylene tubes. Samples are maintained at −30 to −70° C. until analysis. The samples are analyzed for interferon (α) by ELISA and for tumor necrosis factor (α) by ELISA or IGEN Assay
Interferon (α) concentration is determined by ELISA using a Human Multi-Species kit from PBL Biomedical Laboratories, New Brunswick, N.J. Results are expressed in pg/mL.
(§6) The table below lists the lowest concentration found to induce interferon and the lowest concentration found to induce tumor necrosis factor for each compound.

[1] = tested on: tumor necrosis factor (α); assay: Cytokine Induction in Human Cells: tumor necrosis factor (α) by ELISA or IGEN assay; format: cell-based; set-up: key to Lowest Effective Concentration (μM) Tumor Necrosis Factor: *: no induction was seen at any of the tested concentrations; generally the highest concentration tested was 10 or 30 μM; conditions: human PBMC, 18 to 24 hours incubation, lowest concentration found to induce tumor necrosis factor
From the text: as §1, §2, §3, §4, §5
Tumor necrosis factor (α) (TNF) concentration is determined using ELISA kits available from Biosource International, Camarillo, Calif. Alternately, the TNF concentration can be determined by Origen® M-Series Immunoassay and read on an IGEN M-8 analyzer from IGEN International, Gaithersburg, Md. The immunoassay uses a human TNF capture and detection antibody pair from Biosource International, Camarillo, Calif. Results are expressed in pg/mL.
as §6

SMILES: CCCCc1nc2c(N)nc3ccccc3c2n1CCOCCNS(=O)(=O)CC [Example 6]
- minimal effective concentration (interferon (α)): 0.001 µM
- minimal effective concentration [1]: 1 µM

SMILES: CCCCc1nc2c(N)nc3ccccc3c2n1CCOCCNS(=O)(=O)C(C)C [Example 7]
- minimal effective concentration (interferon (α)): 0.01 µM
- minimal effective concentration [1]: 1 µM

SMILES: CCCCc1nc2c(N)nc3ccccc3c2n1CCOCCNS(=O)(=O)N(C)C [Example 8]
- minimal effective concentration (interferon (α)): 0.01 µM
- minimal effective concentration [1]: 1 µM

SMILES: CCCCc1nc2c(N)nc3ccccc3c2n1CCOCCNS(=O)(=O)CCCC [Example 9]
- minimal effective concentration (interferon (α)): 0.1 µM
- minimal effective concentration [1]: 1 µM

SMILES: CCCCc1nc2c(N)nc3ccccc3c2n1CCOCCNS(=O)(=O)c1ccccc1 [Example 10]
- minimal effective concentration (interferon (α)): 1 µM
- minimal effective concentration [1]: 10 µM

SMILES: CCCCc1nc2c(N)nc3ccccc3c2n1CCOCCNS(=O)(=O)c1cccs1 [Example 11]
- minimal effective concentration (interferon (α)): 1 µM
- minimal effective concentration [1]: 10 µM

SMILES: CCCCc1nc2c(N)nc3ccccc3c2n1CCOCCNS(=O)(=O)Cc1ccccc1 [Example 12]
- minimal effective concentration (interferon (α)): 0.1 µM
- minimal effective concentration [1]: 10 µM

SMILES: CCCCc1nc2c(N)nc3ccccc3c2n1CCOCCNS(=O)(=O)c1cccc(F)c1 [Example 13]
- minimal effective concentration (interferon (α)): 1 µM
- minimal effective concentration [1]: 10 µM

SMILES: CCCCc1nc2c(N)nc3ccccc3c2n1CCOCCNS(=O)(=O)c1ccc(C#N)cc1 [Example 14]
- minimal effective concentration (interferon (α)): 1 µM
- minimal effective concentration [1]: 10 µM

SMILES: CCCCc1nc2c(N)nc3ccccc3c2n1CCOCCNS(=O)(=O)c1cccc(C#N)c1 [Example 15]
- minimal effective concentration (interferon (α)): 10 µM
- minimal effective concentration [1]: 10 µM

SMILES: CCCCc1nc2c(N)nc3ccccc3c2n1CCOCCNS(=O)(=O)c1ccc(OC)cc1 [Example 16]
- minimal effective concentration (interferon (α)): 1 µM
- minimal effective concentration [1]: 10 µM

SMILES: CCCCc1nc2c(N)nc3ccccc3c2n1CCOCCNS(=O)(=O)c1ccc(F)cc1F [Example 17]
- minimal effective concentration (interferon (α)): 1 µM
- minimal effective concentration [1]: 10 µM

SMILES: CCCCc1nc2c(N)nc3ccccc3c2n1CCOCCNS(=O)(=O)c1cccc2ccccc12 [Example 18]
- Lowest Effective Concentration (μM) Interferon (interferon (α)): *
- minimal effective concentration [1]: 10 µM

SMILES: CCCCc1nc2c(N)nc3ccccc3c2n1CCOCCNS(=O)(=O)c1ccc2ccccc2c1 [Example 19]
- Lowest Effective Concentration (μM) Interferon (interferon (α)): *
- minimal effective concentration [1]: 10 µM

SMILES: CCCCc1nc2c(N)nc3ccccc3c2n1CCOCCNS(=O)(=O)c1cccc2cccnc12 [Example 20]
- minimal effective concentration (interferon (α)): 1 µM
- minimal effective concentration [1]: 10 µM

SMILES: CCCCc1nc2c(N)nc3ccccc3c2n1CCOCCNS(=O)(=O)c1ccc(C(F)(F)F)cc1 [Example 21]
- minimal effective concentration (interferon (α)): 10 µM
- minimal effective concentration [1]: 10 µM

SMILES: CCCCc1nc2c(N)nc3ccccc3c2n1CCOCCNS(=O)(=O)c1ccc(-c2ccccc2)cc1 [Example 22]
- minimal effective concentration (interferon (α)): 0.0001 µM
- minimal effective concentration [1]: 10 µM

SMILES: CCCCc1nc2c(N)nc3ccccc3c2n1CCOCCNS(=O)(=O)c1ccc(S(C)(=O)=O)cc1 [Example 23]
- minimal effective concentration (interferon (α)): 0.0001 µM
- minimal effective concentration [1]: 10 µM

SMILES: CCCCc1nc2c(N)nc3ccccc3c2n1CCOCCNS(=O)(=O)c1ccc(OC(F)(F)F)cc1 [Example 24]
- minimal effective concentration (interferon (α)): 0.0001 µM
- minimal effective concentration [1]: 10 µM

SMILES: CCCCc1nc2c(N)nc3ccccc3c2n1CCOCCNS(=O)(=O)c1ccc(/N=N/c2ccc(N(C)C)cc2)cc1 [Example 25]
- minimal effective concentration (interferon (α)): 0.0001 µM
- Lowest Effective Concentration (μM) Tumor Necrosis Factor [1]: *

SMILES: CCCCc1nc2c(N)nc3ccccc3c2n1CCOCCNS(=O)(=O)C[C@@]12CC[C@@H](CC1=O)C2(C)C [Example 26]
- minimal effective concentration (interferon (α)): 0.01 µM
- minimal effective concentration [1]: 10 µM

SMILES: CCC(COCCC1CCN(S(=O)(=O)C(C)C)CC1)n1cnc2c(N)nc3ccccc3c21 (centres unmarked) [Example 27]
- minimal effective concentration (interferon (α)): 0.1 µM
- minimal effective concentration [1]: 1 µM

SMILES: CCC(COCCC1CCN(S(=O)(=O)N(C)C)CC1)n1cnc2c(N)nc3ccccc3c21 (centres unmarked) [Example 28]
- minimal effective concentration (interferon (α)): 0.1 µM
- minimal effective concentration [1]: 1 µM

SMILES: CCCCS(=O)(=O)N1CCC(CCOCC(CC)n2cnc3c(N)nc4ccccc4c32)CC1 (centres unmarked) [Example 29]
- minimal effective concentration (interferon (α)): 1 µM
- minimal effective concentration [1]: 10 µM

SMILES: CCC(COCCC1CCN(S(=O)(=O)c2ccccc2)CC1)n1cnc2c(N)nc3ccccc3c21 (centres unmarked) [Example 30]
- minimal effective concentration (interferon (α)): 1 µM
- minimal effective concentration [1]: 10 µM

SMILES: CCC(COCCC1CCN(S(=O)(=O)c2cccs2)CC1)n1cnc2c(N)nc3ccccc3c21 (centres unmarked) [Example 31]
- minimal effective concentration (interferon (α)): 1 µM
- minimal effective concentration [1]: 10 µM

SMILES: CCC(COCCC1CCN(S(=O)(=O)c2cccc(F)c2)CC1)n1cnc2c(N)nc3ccccc3c21 (centres unmarked) [Example 32]
- minimal effective concentration (interferon (α)): 1 µM
- minimal effective concentration [1]: 1 µM

SMILES: CCC(COCCC1CCN(S(=O)(=O)c2cccc(C#N)c2)CC1)n1cnc2c(N)nc3ccccc3c21 (centres unmarked) [Example 33]
- minimal effective concentration (interferon (α)): 1 µM
- minimal effective concentration [1]: 1 µM

SMILES: CCC(COCCC1CCN(S(=O)(=O)c2ccc(OC)cc2)CC1)n1cnc2c(N)nc3ccccc3c21 (centres unmarked) [Example 34]
- minimal effective concentration (interferon (α)): 1 µM
- minimal effective concentration [1]: 1 µM

SMILES: CCC(COCCC1CCN(S(=O)(=O)c2ccc(F)cc2F)CC1)n1cnc2c(N)nc3ccccc3c21 (centres unmarked) [Example 35]
- minimal effective concentration (interferon (α)): 1 µM
- minimal effective concentration [1]: 1 µM

SMILES: CCC(COCCC1CCN(S(=O)(=O)c2cccc3cccnc23)CC1)n1cnc2c(N)nc3ccccc3c21 (centres unmarked) [Example 36]
- minimal effective concentration (interferon (α)): 1 µM
- minimal effective concentration [1]: 10 µM

SMILES: CCC(COCCC1CCN(S(=O)(=O)c2ccc(S(C)(=O)=O)cc2)CC1)n1cnc2c(N)nc3ccccc3c21 (centres unmarked) [Example 37]
- minimal effective concentration (interferon (α)): 0.1 µM
- minimal effective concentration [1]: 1 µM

SMILES: CCC(COCCC1CCN(S(=O)(=O)c2ccc(OC(F)(F)F)cc2)CC1)n1cnc2c(N)nc3ccccc3c21 (centres unmarked) [Example 38]
- Lowest Effective Concentration (μM) Interferon (interferon (α)): *
- Lowest Effective Concentration (μM) Tumor Necrosis Factor [1]: *

SMILES: CCC(COCCC1CCN(S(=O)(=O)c2ccc(/N=N/c3ccc(N(C)C)cc3)cc2)CC1)n1cnc2c(N)nc3ccccc3c21 (centres unmarked) [Example 39]
- minimal effective concentration (interferon (α)): 1 µM
- Lowest Effective Concentration (μM) Tumor Necrosis Factor [1]: *

SMILES: Nc1nc2ccccc2c2c1ncn2CCOCCNS(=O)(=O)c1ccccc1 [Example 41]
- minimal effective concentration (interferon (α)): 10 µM
- minimal effective concentration [1]: 1 µM

SMILES: Nc1nc2ccccc2c2c1ncn2CCOCCNS(=O)(=O)c1cccc(F)c1 [Example 42]
- minimal effective concentration (interferon (α)): 10 µM
- minimal effective concentration [1]: 1 µM

SMILES: COc1ccc(S(=O)(=O)NCCOCCn2cnc3c(N)nc4ccccc4c32)cc1 [Example 43]
- minimal effective concentration (interferon (α)): 10 µM
- minimal effective concentration [1]: 10 µM

SMILES: Nc1nc2ccccc2c2c1ncn2CCOCCNS(=O)(=O)c1ccc(F)cc1F [Example 44]
- minimal effective concentration (interferon (α)): 1 µM
- minimal effective concentration [1]: 10 µM

SMILES: Nc1nc2ccccc2c2c1ncn2CCOCCNS(=O)(=O)c1ccc2ccccc2c1 [Example 45]
- Lowest Effective Concentration (μM) Interferon (interferon (α)): *
- Lowest Effective Concentration (μM) Tumor Necrosis Factor [1]: *

SMILES: Nc1nc2ccccc2c2c1ncn2CCOCCNS(=O)(=O)c1ccc(C(F)(F)F)cc1 [Example 46]
- Lowest Effective Concentration (μM) Interferon (interferon (α)): *
- Lowest Effective Concentration (μM) Tumor Necrosis Factor [1]: *

SMILES: Nc1nc2ccccc2c2c1ncn2CCOCCNS(=O)(=O)c1ccc(-c2ccccc2)cc1 [Example 47]
- Lowest Effective Concentration (μM) Interferon (interferon (α)): *
- Lowest Effective Concentration (μM) Tumor Necrosis Factor [1]: *

SMILES: CS(=O)(=O)c1ccc(S(=O)(=O)NCCOCCn2cnc3c(N)nc4ccccc4c32)cc1 [Example 48]
- Lowest Effective Concentration (μM) Interferon (interferon (α)): *
- minimal effective concentration [1]: 10 µM

SMILES: Nc1nc2ccccc2c2c1ncn2CCOCCNS(=O)(=O)c1ccc(OC(F)(F)F)cc1 [Example 49]
- Lowest Effective Concentration (μM) Interferon (interferon (α)): *
- minimal effective concentration [1]: 10 µM
